# Source: patent US6667293B1, “Use of cyclodextrins to modulate gene expression with reduced immunostimulatory response” (priority 1995, dated 2003)
# Columns and labels:
# mouse splenocytes = test: Splenic cell proliferation assay, [3H]-thymidine incorporation; assay type: cell-based; conditions: for cell proliferation ([3H]-thymidine incorporation): oligonucleotide alone, FIG. 1 / FIG. 3 (SEQ ID NO:4 at 1 or 10 μg/ml)
# Protocol: Mouse spleen was taken from male CD1 mouse (4-5 weeks, Charles River, Wilmington, Mass.). Single cell suspensions were prepared by gently mincing with frosted ends of glass slides, washed twice, and then resuspended in RPMI complete medium [RPMI 1640 medium supplemented with 10%-heat inactivated (56° C. for 30 minutes) fetal bovine serum, 2 mM glutamine, 100 μg/ml streptomycin, 100 U/ml penicillin, and 50 μM 2-mercaptoethanol]. The cells were then plated in 96-well dishes at a density of 10^6 cells/ml, in a final volume of 100 μl. Oligonucleotides were added to the cell culture in 10 μl of TE buffer (10 mM Tris-HCL pH 7.5, 1 mM EDTA). Cyclodextrin analogs: 2-hydroxypropyl-βcyclodextrin (HPCD, degree of substitution 5-8), hydroxyethyl-β cyclodextrin (HECD, degree of substitution 15), and Encapsin (which is a mixture of hydroxypropyl β-cyclodextrin but has a different degree of substitution, 17.8), were purchased pyrogen free (Amaizo, Hammond, Ind.) and were added to the cells at concentration of 0.5% in RPMI medium except where indicated. Cells were then set to culture in a 37° C., 5% CO2-[…], humidified air incubator for further studies. The experiments were done in triplicate.
# After 44 hours, cells were pulsed-labeled with 1 μCi [^3H]-thymidine/well (in 20 μl of RPMI medium) for 4 hours. Cells were then harvested by an automatic cell harvester (Skatron, Sterling, Va.) and the filters were counted using a scintillation counter. […] All the three cyclodextrin analogs reduced cell proliferation to similar levels.
# [1] = system: murine splenic lymphocytes; test: Cell cycle analysis, in vitro (propidium iodide flow cytometry); assay type: cell-based, mouse; conditions: 48 hours, oligonucleotide 10 μg/ml, cyclodextrin 0.5%
# spleen cells of CD1 mice = test: Cell cycle analysis of spleen cells from in vivo treated mice; set-up: species or system mouse
# Protocol: Male CD1 mice (4-5 weeks, 20-22 g, Charles river, Wilmington, Mass.) were used in this study. The animals were fed with commercial diet and water ad libidum and were kept at the animal facility of the University of Massachusetts Medical Center (Worcester, Mass.). For in vivo studies, phosphorothioate oligonucleotides (final concentration 4 mg/ml) were mixed with 5% of the cyclodextrin HPCD or HECD in sterile PBS, sonicated at 4° C. for 1 hour, followed by incubation at 4° C. overnight. […] After 24 hr (in the case of the phosphorothioate oligonucleotide of SEQ ID NO:4) and 48 hr (in the case of the phosphorothioate oligonucleotide of SEQ ID NO:2), mice were sacrificed and spleens were collected and prepared for further studies. Two or three mice were studied for each condition and analyzed individually.
# Spleens from in vivo treated mice were harvested and single cell suspensions were set in culture in RPMI complete medium (10^6 cells/tube in 1 ml RPMI). After 4 hours of culture, cells were washed with FACS buffer and fixed for cell cycle analysis as described above. The experiments were done in duplicate.
# spleen of CD1 mice = test: Spleen size (spleen weight) after intraperitoneal injection; assay type: in vivo, mouse
# Protocol: (§1) Male CD1 mice (4-5 weeks, 20-22 g, Charles river, Wilmington, Mass.) were used in this study. The animals were fed with commercial diet and water ad libidum and were kept at the animal facility of the University of Massachusetts Medical Center (Worcester, Mass.). For in vivo studies, phosphorothioate oligonucleotides (final concentration 4 mg/ml) were mixed with 5% of the cyclodextrin HPCD or HECD in sterile PBS, sonicated at 4° C. for 1 hour, followed by incubation at 4° C. overnight. The phosphorothioate oligonucleotide, either in plain PBS or mixed with cyclodextrin, was injected into mice intraperitoneally, in a volume of 0.25 ml (1 mg/mouse). After 24 hr (in the case of the phosphorothioate oligonucleotide of SEQ ID NO:4) and 48 hr (in the case of the phosphorothioate oligonucleotide of SEQ ID NO:2), mice were sacrificed and spleens were collected and prepared for further studies. Two or three mice were studied for each condition and analyzed individually.
# [2] = system: spleen lymphocytes of CD1 mice; test: Immunoglobulin synthesis (IgG/IgM ELISA) by spleen cells of in vivo treated mice; set-up: species or system mouse
# Protocol: as §1
# Spleens from in vivo treated mice were harvested and single cell suspensions were set in culture at a density of 10^6 cells/ml, in 1 ml RPMI complete medium. […] The optical density (405 nm) was measured using an automatic ELISA plate reader (Bio-Tek Instruments, Inc). IgG and IgM levels were calculated based on the standard curve. […]
# HIV-1 = conditions: background statement; cited from earlier work
# [3] = system: immunostimulatory response; conditions: known from the literature; cited from earlier work
# CD1 mice = test: Toxicity observation after intraperitoneal injection; assay type: in vivo, mouse; conditions: i.p. 50 mg/Kg
# Protocol: as §1
# Similar experiments were performed with the phosphorothioate oligonucleotide of SEQ ID NO:4. […] In order to reduce the toxicity, 25 mg/Kg of the phosphorothioate oligonucleotide of SEQ ID NO:4 was injected into the animals.
# [4] = i.p. 1 mg/mouse (50 mg/Kg), 48 hr
substance,measurement,setting,value
"SEQ ID NO:2: phosphorothioate oligodeoxynucleotide complementary to the rev region of HIV-1; induces an immunostimulatory response (TCGTCGCTGTCTCCGCTTCTTCTTGCC; DNA, all phosphorothioate, methylation of C not given here)",change in [3H] thymidine incorporation,"mouse splenocytes; 0.1 μg/ml oligonucleotide, FIG. 1",no significant change
same,cell proliferation ([3H]-thymidine incorporation),mouse splenocytes,increases cell proliferation in a concentration-dependent manner
same,% cells in G0/G1,[1],77.7 ± 1.0%
same,% cells in G2/S,[1],22.3 ± 1.0%
same,Increase (cells in S/G2 phases compared with medium alone),[1],44.8%
same,% cells in G0/G1,spleen cells of CD1 mice; [4],82.0 ± 1.2%
same,% cells in G2/S,spleen cells of CD1 mice; [4],18.0 ± 1.2%
same,spleen weight relative to PBS-treated mice,"spleen of CD1 mice; i.p. 1 mg/mouse, 48 hr, FIG. 4",about 1.5 times
same,production of IgG and IgM,"[2]; SEQ ID NO:2, 48 hours after injection, FIG. 5",highly significant increase
same,HIV-1 replication,HIV-1,inhibit HIV-1 replication
"SEQ ID NO:3: phosphorothioate oligonucleotide that binds to the human p53 oncogene (CCCTGCTCCCCCCTGGCTCC; all phosphorothioate, sugars by position and methylation of C not given here)",immunostimulatory effect,[3],does not induce an immunostimulatory effect
2-hydroxypropyl-β-cyclodextrin [HPCD],spleen weight compared to PBS-treated mice,spleen of CD1 mice; 5% HPCD alone,no effect on spleen weight
"SEQ ID NO:4: phosphorothioate oligonucleotide, 20-mer that contains multiple 5′-CG-3′ motifs (GAGAACGCTCGACCTTCGAT; all phosphorothioate, sugars by position and methylation of C not given here)",cell proliferation ([3H]-thymidine incorporation),mouse splenocytes,dramatic increase in cell proliferation
same,% cells in G0/G1,"spleen cells of CD1 mice; i.p. 25 mg/Kg, 24 hr",68.5 ± 0.5%
same,% cells in G2/S,"spleen cells of CD1 mice; i.p. 25 mg/Kg, 24 hr",22.7 ± 0.5%
same,Increase (cells in G2/S compared with PBS),"spleen cells of CD1 mice; i.p. 25 mg/Kg, 24 hr",41%
same,stimulation of cell proliferation (cell cycle analysis),"spleen cells of CD1 mice; i.p. 25 mg/Kg, 24 hr",stimulated cell proliferation
same,splenomegaly / spleen weight,"spleen of CD1 mice; SEQ ID NO:4 i.p., 24 hr, FIG. 6",induced splenomegaly
same,increase in production of IgG and IgM antibodies,"[2]; SEQ ID NO:4, FIG. 7",approximately 10 fold
same,toxicity observation,CD1 mice,noticeable bloody exudate and congestion in abdominal cavities
same,immunostimulatory effect,[3],induce an immunostimulatory response both in vitro and in vivo
